Source: patent US5223494A, “Orally administered porphyrins to control intestinal iron absorption” (The Rockefeller University, priority 1990, dated 1993)
Read-outs that look alike come from different tables or passages of the source. Blank lines part the entries; values can stand above or below the molecule they belong to.

Tests used:
[1] = test system: intestinal microsomal heme oxygenase; experiment: Intestinal microsomal heme oxygenase activity after a single dose to rats; assay type: in vivo, rat; settings: for Heme Oxygenase Activity in the Gut, Average: control 2.70 + 0.09
Procedure: (§1) Rats were maintained on Standard Purina Rodent Chow (St. Louis, Mo.), and were allowed to acclimatize to a light-cycled room (12 hr light/dark cycle) for at least one week prior to study. SnPP was dissolved in a small volume (0.2 ml/ml final volume) of 0.2N Na3 PO4 12H2 O, adjusted to pH 7.4 with 1M HCl and made up to a final volume with 0.9% NaCl under subdued light. SnPP was administered either subcutaneously or by gavage in a single dose of 25 umoles/kg body weight (4.0 ml/kg body weight). Control rats received an equivalent volume of diluent. All rats were allowed free access to food and water.
(§2) Animals were sacrificed at the times indicated in the legend to the Table and in the above and following descriptions of the Figures, and then exhaustively perfused in situ with ice-cold 0.9% NaCl through the left ventricle. The small intestine was cut at the pyloric junction and the entire length of the intestine irrigated in situ with 30 ml of ice-cold 0.9% NaCl to remove intestinal contents. Beginning at 5 cm, a 20 cm segment of small intestine was excised and irrigated once more with 30 ml of saline. The mucosa was then gently scraped off with a stainless steel scalpel and placed in ice-cold potassium phosphate buffer (0.1M, pH 7.4), containing sucrose (0.25M), 20% glycerin (v/v), trypsin inhibitor (5 mg/ml), and heparin (3 U/ml), as described by Stohs et al, Arch. Biochem Biophys. 177: 105-116 (1976). Following sonication and homogenization, intestinal microsomes were then prepared by differential centrifugation as described in Rosenberg et al, Biochem. Pharmacol. 38: 1155-1161 (1988). The microsomal pellet was rinsed and resuspended in 1.5 ml of potassium phosphate buffer (0.1M, pH 7.4) to a protein concentration of approximately 5-10 mg/ml. Microsomes were freshly prepared on a daily basis for all subsequent assays. The activity of heme oxygenase was determined as described in Maines et al, J. Biol. Chem. 250: 4171-4178 (1975), using the 105,000xg supernatant fraction derived from normal rat liver as the source of biliverdin reductase, and a hemin concentration of 50 uM. Bilirubin formation was calculated using an absorption coefficient of 40 mm^1 cm^1 between 464 and 530 nm (See Maines et al, Proc. Natl. Acad. Sci. USA 71: 4293-4297 (1974)). Protein content was determined by method of Lowry et al, J. Biol. Chem. 193: 265-275 (1951) suing bovine serum albumin as a standard.
A single does of SnPP (25 umoles/kg b.w.) was administered either orally or parenterally to rats, and heme oxygenase levels were determined in the small intestinal epithelium at the times indicated in FIG. 1. This dose was selected to match that previously used by other investigators (See Hintz et al, Ped. Res. 23: 50-53 (1988)). Following oral treatment, heme oxygenase activity was rapidly (within 3 hours) inhibited (50% of controls), but the levels returned to normal within 16-24 hours after treatment.

[2] = test system: intestinal heme oxygenase; settings: in vitro or in vivo after administration of SnPP; Hintz et al 1988; cited from earlier work
[3] = rat, in vivo, po
Procedure: as §1
All tin analyses were performed on Zeeman/5000 atomic absorption spectrophotometer equipped with an HGA-500 graphite furnace Perkin-Elmer Corp., Norwalk, Conn.). The graphite furnace utilized the L'vov platform (See Slavin et al, At. Spectrosc. 2: 137-145 (1981)) with an appropriate wavelength (286.4 nm) and instrumental operating conditions as recommended by the manufacturer and optimized in our laboratory for tin measurement. All tin analyses included magnesium nitrate and ammonium phosphate in 20% nitric acid as a matrix modified.
For Table II: SnPP was adminsitered to rats in a single dose (25 umoles/kg body weight) either orally or subcutaneously. Tissue tin levels were determined 48 hours later by graphite furnace atomic absorption spectroscopy. […]

[4] = test system: intestinal microsomal heme oxygenase; experiment: Competitive inhibition of intestinal microsomal heme oxygenase in vitro; assay type: biochemical, rat
Procedure: SnPP (o) was added to intestinal microsomes at concentrations of […]. The heme concentration was 50 uM. Heme oxygenase activity was determined as described below under Materials and Methods. Each point represents the mean of at least 3 individual experiments. Similar results obtain for other metalloporphyrins within the scope of the present invention.
as §2
This is similar to the Km reported for heme in hepatic and splenic microsomes (See Kappas et al, J. Clin. Invest. 77: 335-339 (1986); Yoshinaga et al, J. Biol. Chem. 257: 7778-7785 (1982)).

[5] = SnPP 25 umoles/kg single oral dose, rat

inhibition of heme oxygenase activity ([1]; SnPP 25 umoles/kg single parenteral (subcutaneous) dose, rat): 65 % inhibition | absorption from the gastrointestinal tract [3]: very low degree of absorption | Km ([4]; SnPP 0.05 uM, intestinal microsomes, read-out: Km for heme in presence of SnPP): 23.9 µM | Km ([4]; SnPP 0.1 uM, intestinal microsomes, read-out: Km for heme in presence of SnPP): 56.2 µM | increase in the Km for heme ([4]; SnPP 0.05 and 0.1 uM): 3- to 7 fold | type of inhibition of enzyme activity ([4]; SnPP 0.05 and 0.1 uM added to incubation mixtures): marked competitive inhibition | Ki ([4]; intestinal microsomes): 17 nM
Molecule: C=Cc1c2[n-]c(c1C)/C=c1\[n-]/c(c(C)c1C=C)=C\c1[n-]c(c(CCC(=O)O)c1C)/C=c1\[n-]c(c(C)c1CCC(=O)O)=C2.[Sn+4] [SnPP, tin protoporphyrin]
heme oxygenase activity in small intestinal epithelium [1, 5]: 50 % of controls | time for heme oxygenase levels to return to normal [1, 5]: 16 to 24 h | time to inhibition of heme oxygenase activity [1, 5]: ≤ 3 h | persistence of decreased heme oxygenase activity ([1]; SnPP 25 umoles/kg single parenteral dose, rat): at least 48 hours | inhibition of intestinal heme oxygenase [2]: no inhibition

Molecule: C=CC1=C(C)c2cc3[n-]c(cc4[n-]c(cc5nc(cc1n2)C(C)=C5C=C)c(C)c4CCC(=O)O)c(CCC(=O)O)c3C.[Fe+2] [heme, reference compound]
Km ([4]; intestinal microsomes, no inhibitor, linear regression, read-out: apparent Km for the substrate heme): 8.21 µM

Molecule: chromium mesoporphyrin [CrMP]
Heme Oxygenase Activity in the Gut, Average ([1]; 3 hours after oral 25 umol/Kg CrMP): 0.64 + 0.38 | Heme Oxygenase Activity in the Gut, Average ([1]; 16 hours after oral 25 umol/Kg CrMP): 1.04 + 0.02 | Heme Oxygenase Activity in the Gut, Average ([1]; 24 hours after oral 25 umol/Kg CrMP): 1.85 + 0.07 | Heme Oxygenase Activity in the Gut, Average ([1]; 48 hours after oral 25 umol/Kg CrMP): 2.57 + 0.07
